# Measured values published in patent US7557085B2, “Metabolic-based methods for modulating gene expression” (Wisconsin Alumni Research Foundation, priority 2005, dated 2009).
# How the values were obtained:
# [1] = format: in vivo; conditions: rats
# Procedure: Dosage amount and interval of administration of compounds of the present invention can be adjusted individually to reduce seizure frequency, duration or intensity. For example, doses of 250 mg/kg 2-DG or less to higher as tolerated can be used to reduce seizure frequency and minimize toxicity. Doses of as much as 2000 mg/kg 2-DG are well tolerated in rats. […] A practitioner skilled in the art can adjust dosage in the range up to 500-600 mg/kg 2-DG and the timing of administration to produce prolonged anticonvulsant and antiepileptic effects. Efficacious dosage amounts can be adjusted to about 14 mg/kg 2-DG in children and 40 mg/kg 2-DG in adults, using therapeutic efficacy measurements (e.g., reduction in frequency or severity of seizures) as a criterion for establishing effective dosage levels.
# TrkB = assay: QRT-PCR of hippocampal tissue from kindled rats, TrkB; format: in vivo, rat
# Description: Values plotted are BDNF or TrkB expression over Actin using rat hippocampal cDNA from an untreated rat for a standard curve. Specifically, mRNA was extracted from hippocampus tissue from rats treated with 2-DG or untreated control rats subjected to kindling stimulation to mimic epilepsy. […] The levels of actin mRNA were not affected by 2-DG treatment. Importantly, the differences in expression of BDNF or TrkB in the absence or presence of 2DG were present after 5 ADs in association with a large difference in AD threshold between 2DG-treated and control rats (FIG. 3 lanes 5 versus 6 and 7 versus 8).
# [2] = tested on: actin (not an NRSF target); assay: QRT-PCR of actin in JTC-19 cells; format: cell-based, rat; conditions: 1 mM 2-DG for 24 hrs
# Description: FIG. 5 are graphs showing the results of quantitative reverse-transcriptase-PCR experiments, wherein NaV1.2 is sodium type II (NaV1.2); BDNF is Brain Derived Neurotrophic Factor (BDNF) and CHRM4 is muscarinic acetylcholine receptor type 4 (CHRM4), all genes repressed by NRSE/NRSF, and actin (not an NRSF target).
# Firefly luciferase measurements were normalized to co-transfected pRL-TK and expressed as fold repression (gal4 DBD/gal4-NRSF). Values are the average of at least three experiments performed in triplicate. Error bars indicate standard errors. […] In these experiments, cells were grown in the presence or absence of 1 mM 2-DG for 24 hrs, harvested and RNA subjected to QRT-PCR with primers to the NRSF target genes Sodium Type II (NaV1.2), Brain Derived Neurotrophic Factor (BDNF) and Muscarinic Acetylcholine Receptor Type 4 (CHRM4) or actin (not an NRSF target). Rat hippocampal cDNA was used to generate a standard curve and values plotted are microliter equivalents of hippocampal cDNA.
compound,measurement,setting,value
"O=CC[C@@H](O)[C@H](O)[C@H](O)CO [2-DG, 2-deoxy-D-glucose]",well tolerated dose,[1],≤ 2000 mg/kg
same,hippocampal TrkB expression compared to control animals,"TrkB; QRT-PCR, expression over actin, FIG. 3 lanes 3 versus 4",significantly reduced
same,difference in expression of TrkB in absence or presence of 2DG,TrkB; after 5 ADs,present
same,"TrkB expression, 2DG-treated versus control rats",TrkB; rats that experienced 3 Class V seizures,no difference in expression
same,actin levels,[2],unaffected
